Laboratory results as given in US20060004086A1, “Method of reducing Abeta42 and treating diseases” (Mayo Foundation for Medical Education and Research, priority 2000, published 2006).
Where two headings read alike, the source gives them in different places.

What was measured:
Aβ42 secretion [1] = experiment: Primary in vitro screen, CHO-APP695NL,I,his cells, end-specific Aβ40 and Aβ42 ELISAs; assay type: cell-based, Chinese hamster; conditions: Cricetulus griseus, 6 h, six-hour culture supernatants
Protocol: Aβ40 and Aβ42 levels in culture supernatants were determined for each time points using ELISA.
In a primary screen, the effects of NSAIDs on Aβ42 secretion by a CHO cell line that expressed APP(CHO-APP695NL,I,his) were examined. Duplicate cell cultures were treated with (a) a vehicle, (b) 10 μM of NSAID, or (c) 100 μM of NSAID.
To determine Aβ40 and Aβ42 levels, six-hour culture supernatants taken from cells grown in a single well of a twenty-four-well plate were used in end-specific Aβ40 and Aβ42 ELISAs (Suzuki, et al. (1994) Sci 264:[…]). Aβ40 and Aβ42 levels of cultures treated with NSAID were compared with those of cultures treated with the vehicle alone. […] NSAIDs that caused either selective reduction of Aβ42 levels or reduction in both Aβ40 and Aβ42 levels are subjected to a secondary screen.

[2] = test system: Notch intramembrane cleavage; experiment: Notch intramembrane cleavage and NICD formation in HEK293 cells; assay type: cell-based; conditions: 500 μM; data not shown
Excerpt: Two Notch-encoding vector constructs were used in examining Notch processing. These were a construct expressing a myc-tagged NH2-terminal truncated Notch-1 polypeptide (NotchΔEMV), and a construct expressing only the Notch intracellular cytoplasmic domain (NICD) (see Kopan et al. (1996) Proc Natl Acad Sci USA 93:1683-8). In the construct expressing a myc-tagged NH2-terminal truncated Notch-1 polypeptide, the start codon, a methionine at position 1726, was mutated to a valine to eliminate translation initiation.
Notch intramembrane cleavage and formation of NICD were analyzed in kidney HEK293 cells. The myc-tagged NotchΔEMV construct encoding a constitutively cleaved Notch variant was transiently transfected into HEK293 cells. […] Then they were pulse labeled with ^35S-methionine for thirty minutes and chased for two hours. Cell lysates were prepared and subjected to immunoprecipitation with monoclonal antibody 9E10. Immunoprecipitated proteins were subjected to SDS-PAGE and phosphor imaging analyses.

Aβ42 secretion [3] = experiment: Aβ40/Aβ42 ELISA of culture supernatants, CHO cells expressing APP751 and PS-1 mutant M146L; assay type: cell-based, Chinese hamster; conditions: concentrations up to 500 μM
Protocol: Cell cultures were maintained in standard cell culture media supplemented with 10% fetal bovine serum and 100 U/mL penicillin/streptomycin (Life Technologies Inc., Germany).
For analyses of Aβ secretion, APP processing, and notch cleavage, cells were cultured in serum-containing media and pretreated overnight with a specific NSAID. The next day, media were changed and cultures were treated with the same NSAID for another 24 hours.
Aβ was detected by sandwich enzyme-linked immunosorbent assay (ELISA) as described by Murphy et al. (2000) J Biol Chem 275:26277-84. Following NSAID treatment, culture supernatants were collected, and cell debris was removed by centrifugation. Complete protease inhibitor cocktail (Roche Molecular Biochemicals, IN, USA) was added to the media and Aβ40 and Aβ42 levels were quantified using end-specific Aβ ELISAs. All measurements were performed in duplicate.
Levels of Aβ40 and Aβ42 in culture supernatants were analyzed using ELISA. […] Aβ42/Aβ40 ratios and total Aβ levels (i.e., the sum of Aβ40 and Aβ42 values) were normalized to values obtained from DMSO-treated cells. Results shown were averages of two or three experiments performed in duplicate.
Aβ40 and Aβ42 levels in culture supernatants were analyzed using ELISA as described in Example 3. […] Aβ42/Aβ40 ratios and total Aβ levels were normalized to values obtained from ethanol-treated cells. Results shown were averages of two or three experiments, each performed in duplicate.

[4] = test system: brain Aβ42 levels in Tg2576 mice; experiment: Acute oral dosing of three-month-old Tg2576 mice, brain Aβ ELISA; assay type: in vivo, mouse; conditions: Tg2576 mice
Protocol: NSAIDs were dissolved in an appropriate vehicle. Dimethyl sulfoxide (DMSO), ethanol, and ethyl acetate are some examples. The NSAID solution was mixed with Kool-Aid and administered orally using a medicine dropper. […] At two hours after the final doses were administered, animals were sacrificed, and SDS soluble Aβ40 and Aβ42 were analyzed using ELISA.
Three month old mice have high levels of soluble Aβ in the brain but no Aβ deposition (see Hsiao et al. (1996) Science 274:99-102). […] Brain levels of SDS-soluble Aβ40 and Aβ42 were measured using ELISA.
Compounds were administered orally.

APP processing = experiment: Western blot of APP, APP CTFs and sAPP, CHO cells expressing APP751; assay type: cell-based, Chinese hamster; conditions: 500 μM; data not shown
Excerpt: Expression of holo-APP and APP C-terminal fragments (CTFs) was examined by Western blot analysis using antibody CT-15. APP secretion was examined by Western blotting using a mixture of 5A3/IG7 antibodies. APP turnover was examined by pulse labeling of CHO cells with 150 μCi [^35S]-methionine for fifteen minutes followed by a cold chase step for up to four hours. Cell lysates were immunoprecipitated with antibody CT-15, subjected to SDS-PAGE, and analyzed by phosphor imaging.
Cell lysates were prepared, and steady-state APP levels were examined using 4-12% gradient-gel electrophoresis and western blotting using the polyclonal antibody CT15.

Aβ levels in the brain = conditions: long-term transgenic mouse studies; cited from earlier work
[5] = plasma concentration of the drug; cited from earlier work
[6] = three month-old, 50 mg/kg/day orally for three days, SDS-soluble, mean ± SD
[7] = treatment for three days, 50 mg/kg/day

In the case of `CC(C)Cc1ccc(C(C)C(=O)O)cc1` (stereo not shown) [Ibuprofen, ibuprofen], the activity at 10 µM (Aβ42 secretion [1]; read-out: % Control % Aβ42) is reported as 82%, the activity at 10 µM (Aβ42 secretion [1]; read-out: % Control Aβ40) is reported as 102% and the activity at 10 µM (Aβ42 secretion [1]; read-out: % Control Aβ42) is reported as 80%. It also gave an activity at 100 µM (Aβ42 secretion [1]; read-out: % Control % Aβ42) of 81%, an activity at 100 µM (Aβ42 secretion [1]; read-out: % Control Aβ40) of 95% and an activity at 100 µM (Aβ42 secretion [1]; read-out: % Control Aβ42) of 74%. The “inhibition of Notch cleavage” value [2] was “did not cause”, the “total Aβ levels” value (Aβ42 secretion [3]) was “not significantly affected” and the “Brain levels of Aβ40” value [4, 6] was 2620 ± 246 fmol/gm. For the same compound, the “Brain levels of Aβ42” value [4, 6] was 734 ± 302 fmol/gm, the “% Aβ42 in brain” value ([4]; three month-old, 50 mg/kg/day orally for three days, mean ± SD) was 21.5 ± 7.7 % and the “Aβ40 levels in the brain” value [4, 7] was “no change”. For the same compound, the “reduction in Aβ42 levels in the brain” value [4, 7] was “approximately 30%”, the “accumulation of APP-CTFs” value (APP processing) was “did not cause” and the “Aβ levels in the brain, lower when treated than untreated” value (Aβ levels in the brain) was “about 38%”. The Plasma [5] was 40 to 111 µM.
